Literature values in patent publication US20210155895A1, “Pluripotent Stem Cell-Derived 3D Retinal Tissue and Uses Thereof” (LINEAGE CELL THERAPEUTICS, INC., priority 2016, published 2021).

How the values were obtained:
PR (photoreceptors) = conditions: zaprinast 100 μM
histone H3 = conditions: Koriyama et al. 2014

## CN(N=O)C(N)=O [MNU, N-methyl, N-nitrosourea]
PR (photoreceptor) cells
  time to PR cell death after application: ≤ 7 days
PR (photoreceptor) cells; involving the caspase pathway
  PR cell death: selective and progressive PR cell death

## CCCOc1ccccc1-c1nc2nn[nH]c2c(=O)[nH]1 [zaprinast]
PR (photoreceptors)
  PR degeneration: induces PR degeneration at a level comparable to that observed in the mouse rd1 model
  effect on intracellular cGMP: raises intracellular cGMP

## CCCC(CCC)C(=O)O [valproic acid]
Histone H3
  effect on histone H3 acetylation: induces histone H3 acetylation
